This note sets out measurements from patent US11306084B2, “Integrin antagonists” (Saint Louis University, priority 2016, dated 2022).

Common to all, as to assay type: binding
In test [1] the target is T1, Recombinant human integrin ανβ1 (Homo sapiens, UniProt P05556+P06756).
T1 construct: purchased R&D Systems 6579-AV
Briefly: Solid Phase Receptor Assay (SPRA) for ανβ1 function. As to conditions: plate-bound human fibronectin; read-out: αvβ1 SPRA IC50.

Test [2] deals with T2, Recombinant human integrin ανβ3 (Homo sapiens, UniProt P05106+P06756).
T2 construct: purchased R&D Systems 3050-AV
The test can be described thus: Solid Phase Receptor Assay (SPRA) for ανβ3 function. As to conditions: plate-bound human vitronectin; read-out: αvβ3 SPRA IC50.

In test [3] the target is T3, Recombinant human integrin ανβ6 (Homo sapiens, UniProt P06756+P18564).
T3 construct: purchased R&D Systems 3817-AV
The test can be described thus: Solid Phase Receptor Assay (SPRA) for ανβ6 function. Particulars: plate-bound human LAP; read-out: αvβ6 SPRA IC50.

The target in test [4] is T4, Recombinant human integrin α5β1 (Homo sapiens, UniProt P05556+P08648).
T4 construct: purchased R&D Systems 3230-A5
The test can be described thus: Solid Phase Receptor Assay (SPRA) for α5β1 function. Particulars: plate-bound human fibronectin.

Where a name gives a salt, the structure may show the parent alone.

T3 sequence (P06756 31-992 limits assumed): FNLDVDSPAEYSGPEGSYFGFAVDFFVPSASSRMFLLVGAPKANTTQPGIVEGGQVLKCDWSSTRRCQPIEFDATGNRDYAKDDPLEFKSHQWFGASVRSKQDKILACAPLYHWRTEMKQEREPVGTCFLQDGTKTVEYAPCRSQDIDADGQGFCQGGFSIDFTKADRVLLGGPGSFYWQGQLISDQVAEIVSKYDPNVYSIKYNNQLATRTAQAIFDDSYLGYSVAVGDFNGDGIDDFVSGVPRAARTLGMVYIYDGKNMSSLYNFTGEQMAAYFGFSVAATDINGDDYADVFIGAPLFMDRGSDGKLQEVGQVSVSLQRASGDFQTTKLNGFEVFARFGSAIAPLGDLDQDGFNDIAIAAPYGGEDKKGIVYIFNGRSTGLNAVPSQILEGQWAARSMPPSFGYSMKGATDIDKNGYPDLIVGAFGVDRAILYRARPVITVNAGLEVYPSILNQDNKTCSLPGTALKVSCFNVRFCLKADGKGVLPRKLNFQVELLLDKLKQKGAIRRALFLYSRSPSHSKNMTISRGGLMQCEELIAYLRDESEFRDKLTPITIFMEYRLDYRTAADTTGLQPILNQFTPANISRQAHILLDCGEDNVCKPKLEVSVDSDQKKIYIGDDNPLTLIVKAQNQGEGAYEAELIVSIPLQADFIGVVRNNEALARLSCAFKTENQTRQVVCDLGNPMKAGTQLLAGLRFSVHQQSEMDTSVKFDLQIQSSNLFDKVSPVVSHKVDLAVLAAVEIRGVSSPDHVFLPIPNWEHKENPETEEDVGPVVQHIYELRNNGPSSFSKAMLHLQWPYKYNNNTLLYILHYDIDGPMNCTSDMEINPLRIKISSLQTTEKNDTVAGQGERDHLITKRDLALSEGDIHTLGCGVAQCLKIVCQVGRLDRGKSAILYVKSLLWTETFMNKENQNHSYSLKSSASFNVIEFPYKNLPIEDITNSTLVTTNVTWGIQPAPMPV
T3 sequence (P18564 22-707 limits assumed): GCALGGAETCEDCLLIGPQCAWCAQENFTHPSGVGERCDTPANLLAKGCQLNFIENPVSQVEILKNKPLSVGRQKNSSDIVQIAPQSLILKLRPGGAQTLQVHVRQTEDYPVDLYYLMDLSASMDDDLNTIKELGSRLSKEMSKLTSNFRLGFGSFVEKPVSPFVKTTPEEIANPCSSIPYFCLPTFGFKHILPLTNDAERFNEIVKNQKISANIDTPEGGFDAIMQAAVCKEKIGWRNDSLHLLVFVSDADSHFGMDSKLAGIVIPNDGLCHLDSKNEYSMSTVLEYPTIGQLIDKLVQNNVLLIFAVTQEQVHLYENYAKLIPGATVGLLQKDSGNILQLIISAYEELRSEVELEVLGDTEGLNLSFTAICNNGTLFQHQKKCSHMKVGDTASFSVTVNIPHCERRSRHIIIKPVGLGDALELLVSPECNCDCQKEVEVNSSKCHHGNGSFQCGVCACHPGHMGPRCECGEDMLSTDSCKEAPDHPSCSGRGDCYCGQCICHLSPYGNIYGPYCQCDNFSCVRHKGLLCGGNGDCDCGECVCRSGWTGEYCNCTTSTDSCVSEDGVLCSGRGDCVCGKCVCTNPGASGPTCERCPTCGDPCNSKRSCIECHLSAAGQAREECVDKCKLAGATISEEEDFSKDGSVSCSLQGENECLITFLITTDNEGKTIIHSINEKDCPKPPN
T2 sequence (P06756 31-992 limits assumed): as the sequence (P06756 31-992 limits assumed) above
T2 sequence (P05106 27-718 limits assumed): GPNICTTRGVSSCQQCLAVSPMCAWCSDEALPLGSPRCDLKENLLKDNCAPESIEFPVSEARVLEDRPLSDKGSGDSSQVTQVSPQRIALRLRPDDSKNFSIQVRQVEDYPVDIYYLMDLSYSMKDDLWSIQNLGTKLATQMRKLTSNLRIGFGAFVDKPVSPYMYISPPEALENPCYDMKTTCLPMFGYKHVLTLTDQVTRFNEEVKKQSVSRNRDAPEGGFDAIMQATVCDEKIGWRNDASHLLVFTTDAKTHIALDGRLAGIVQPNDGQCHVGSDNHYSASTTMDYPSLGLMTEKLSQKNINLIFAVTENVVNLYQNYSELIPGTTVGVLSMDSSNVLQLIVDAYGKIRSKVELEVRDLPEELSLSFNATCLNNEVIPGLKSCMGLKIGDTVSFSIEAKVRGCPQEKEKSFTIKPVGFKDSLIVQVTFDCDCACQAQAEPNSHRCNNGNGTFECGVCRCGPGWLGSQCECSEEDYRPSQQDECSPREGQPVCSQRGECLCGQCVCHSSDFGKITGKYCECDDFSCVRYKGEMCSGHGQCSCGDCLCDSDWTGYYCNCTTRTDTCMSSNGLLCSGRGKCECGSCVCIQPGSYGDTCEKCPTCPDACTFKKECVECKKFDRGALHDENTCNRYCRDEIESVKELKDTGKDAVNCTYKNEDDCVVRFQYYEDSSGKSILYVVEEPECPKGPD
T1 sequence (P06756 31-992 limits assumed): as the sequence (P06756 31-992 limits assumed) above
T1 sequence (P05556 21-728 limits assumed): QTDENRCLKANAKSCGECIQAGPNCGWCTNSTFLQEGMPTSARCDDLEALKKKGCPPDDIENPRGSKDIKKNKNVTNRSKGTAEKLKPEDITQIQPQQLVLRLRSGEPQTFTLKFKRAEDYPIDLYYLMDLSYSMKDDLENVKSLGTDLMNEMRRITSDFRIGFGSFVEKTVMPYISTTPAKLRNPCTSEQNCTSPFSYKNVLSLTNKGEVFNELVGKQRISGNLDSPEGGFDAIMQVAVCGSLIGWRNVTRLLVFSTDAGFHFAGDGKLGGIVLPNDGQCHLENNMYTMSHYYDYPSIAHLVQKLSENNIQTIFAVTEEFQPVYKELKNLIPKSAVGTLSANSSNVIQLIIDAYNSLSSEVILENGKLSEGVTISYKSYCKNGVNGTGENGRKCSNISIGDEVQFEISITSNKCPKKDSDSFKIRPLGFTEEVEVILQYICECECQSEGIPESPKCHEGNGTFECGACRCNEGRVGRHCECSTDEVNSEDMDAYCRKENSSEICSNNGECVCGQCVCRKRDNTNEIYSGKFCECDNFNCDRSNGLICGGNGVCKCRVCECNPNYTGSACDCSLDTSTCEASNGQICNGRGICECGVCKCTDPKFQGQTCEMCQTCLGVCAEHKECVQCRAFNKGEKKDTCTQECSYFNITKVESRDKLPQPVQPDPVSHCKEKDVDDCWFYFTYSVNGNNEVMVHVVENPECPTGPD
T4 sequence (P08648 42-995 limits assumed): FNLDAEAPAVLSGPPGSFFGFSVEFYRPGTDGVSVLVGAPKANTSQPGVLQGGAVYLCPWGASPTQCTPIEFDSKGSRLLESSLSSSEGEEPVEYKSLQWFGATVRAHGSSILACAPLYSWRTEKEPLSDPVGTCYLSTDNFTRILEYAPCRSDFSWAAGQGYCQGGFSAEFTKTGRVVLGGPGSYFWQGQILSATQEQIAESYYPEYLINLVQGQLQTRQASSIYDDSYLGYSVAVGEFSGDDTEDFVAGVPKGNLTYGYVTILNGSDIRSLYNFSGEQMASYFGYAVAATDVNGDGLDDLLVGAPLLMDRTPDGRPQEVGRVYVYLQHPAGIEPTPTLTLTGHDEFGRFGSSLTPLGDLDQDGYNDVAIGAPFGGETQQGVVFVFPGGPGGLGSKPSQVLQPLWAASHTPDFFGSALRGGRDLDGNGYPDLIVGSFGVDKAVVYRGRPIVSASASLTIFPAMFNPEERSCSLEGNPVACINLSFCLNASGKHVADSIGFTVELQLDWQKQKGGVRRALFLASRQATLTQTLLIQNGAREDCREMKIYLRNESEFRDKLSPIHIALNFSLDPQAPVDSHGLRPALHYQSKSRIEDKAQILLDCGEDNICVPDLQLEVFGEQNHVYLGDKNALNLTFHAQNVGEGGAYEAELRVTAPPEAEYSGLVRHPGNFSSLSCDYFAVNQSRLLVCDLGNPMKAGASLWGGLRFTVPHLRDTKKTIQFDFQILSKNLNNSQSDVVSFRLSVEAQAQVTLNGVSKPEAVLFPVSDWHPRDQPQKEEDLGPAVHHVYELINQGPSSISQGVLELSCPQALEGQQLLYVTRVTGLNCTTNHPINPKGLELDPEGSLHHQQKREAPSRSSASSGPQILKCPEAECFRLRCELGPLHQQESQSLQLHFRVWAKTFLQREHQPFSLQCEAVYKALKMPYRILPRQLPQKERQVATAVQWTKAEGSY
T4 sequence (P05556 21-728 limits assumed): as the sequence (P05556 21-728 limits assumed) above

As for `Cn1nc(CC(CC(=O)O)c2cccc(C(C)(C)C)c2)cc1OCCc1ccc2c(n1)NCCC2` (stereo not shown) [Example 49, 3-(3-tert-butylphenyl)-4-[1-methyl-5-[2-(5,6,7,8-tetrahydro-1,8-naphthyridin-2-yl)ethoxy]pyrazol-3-yl]butanoic Acid Trifluoroacetate], the IC50 in test [1] is 4.4 nM; in test [2] it was 7 nM; in test [3], 94 nM; in test [4], 12 nM.
